The values that follow come from patent publication US20230129438A1, “IMMUNOMODULATING IMINE-OXAZOLINE AZALIDES” (Zoetis Services LLC, priority 2020, published 2023).

In data set [1] the test system is P. multocida. Put plainly: Murine P. multocida intranasal challenge study with lung tissue RNA sequence analysis. The format is in vivo, mouse. The settings on record: placebo 0%. The method, then:
In one murine P. multocida intranasal challenge study, mice were administered tulathromycin (16 mg/kg; T02), M9 (32 mg/kg; T03), or ceftiofur (9 mg/kg; T04) by subcutaneous injection 18 hours after bacterial challenge (5×10^3 CFU/mouse) for lung tissue RNA sequence analysis. Survival at Day 7 was about 80%, 50%, and 90% for T02, T03, and T04, respectively, compared to placebo at 0%. Differential gene expression from total lung tissue RNA sequence analysis indicated at least 226 unique genes were up or down regulated (with significance) for T03. Output from ingenuity pathway analysis of these unique genes predicted major upstream regulators of the involved pathways. Data was analyzed based on the number of genes being modulated in the same direction that were associated with a given upstream regulator. An activation z-score of 2 or greater is considered significant and the direction change is indicated by + (activated) or − (inhibited). The top 5 pathways included: IL-9 signaling, glucocorticoid receptor signaling, prolactin signaling, JAK STAT signaling, and IL-17 signaling. The top 6 upstream regulators (activation z-score) included: lipopolysaccharide (−6.725), TNF (−4.669), IFNγ (−5.759), IL-1β (−5.947), STAT1 (−2.787), and poly rI:rC-RNA (−5.289). Even though this study was run in the murine model, the top upstream regulators identified as being modulated by M9 include an almost ubiquitous overlap with the pathways identified in the natural disease study as being key mediators in BRD, and therefore is modulating highly relevant pathways in BRD pathobiology.

Data set [2] concerns M. haemolytica (strain: OSU-012103-BHI). In words: Bovine M. haemolytica intratracheal lung challenge model. The data set is classed as in vivo.
The next data set relates to TNF-α. In words: Bovine whole blood assay, LPS-induced TNF-α. The format is cell-based. Particulars: LPS 1 μg/mL. The method, then:
(§1) (protected from light) for 30 minutes.

The test system of a further data set is IL-1β. Put plainly: Bovine whole blood assay, IL-1β. The format is cell-based. The settings on record: drug concentration giving overstimulation of IL-1β over LPS (cellular toxicity signal). The method, then:
as §1

Another data set relates to IL-6. Put plainly: Bovine whole blood assay, LPS-induced IL-6. The format is cell-based. The settings on record: LPS 1 μg/mL.
In another data set the test system is P. multocida 46572. Put plainly: In vivo mouse lung infection challenge model (murine efficacy model). The settings on record: for % Survival: 20 mg/kg subcutaneous, CD-1 mice, intranasal challenge, to Day 10, approximate (~%), harmonized relative to vehicle and M9.
A further data set has as its system M. haemolytica. In words: In-vitro MIC model, M. haemolytica. The format is cell-based.
Data set [3] deals with P. multocida. In words: In-vitro MIC model, P. multocida. The data set is classed as cell-based.
The next data set has as its system H. somni. In words: In-vitro MIC model, H. somni. The data set is classed as cell-based. Particulars: lung isolates at necropsy, natural BRD study, H. somni (25).
Data set [4] deals with bovine respiratory disease (BRD). Put plainly: Natural bovine respiratory disease study. The format is in vivo, beef calves. The settings on record: T04, dose not given, 14-day observation; saline 43%.
The test system of a further data set is E. coli. In words: In-vitro MIC model, E. coli.
The next data set has as its system S. aureus. Put plainly: In-vitro MIC model, S. aureus. Particulars: S. aureus ATCC 29213.
[5] abbreviates: lung isolates at necropsy, natural BRD study, M. haemolytica (116).
Setting [6] is: lung isolates at necropsy, natural BRD study, P. multocida (33).

≈ marks a conversion by molar mass, not a printed value. Where only a bound is given, the exact number is not on record here.

`CCCNC[C@]1(O)[C@H](C)O[C@@H](O[C@H]2[C@H](C)[C@@H](O[C@@H]3O[C@H](C)C[C@H](N(C)C)[C@H]3O)[C@](C)(O)C[C@@H](C)CN[C@H](C)[C@@H](O)[C@](C)(O)[C@@H](CC)OC(=O)[C@@H]2C)C[C@@]1(C)OC` [tulathromycin, (2R,3S,4R,5R,8R,10R,11R,12S,13S,14R)-11-(((2S,3R,4S,6R)-4-(dimethylamino)-3-hydroxy-6-methyltetrahydro-2H-pyran-2-yl)oxy)-2-ethyl-3,4,10-trihydroxy-13-(((2R,4R,5S,6S)-5-hydroxy-4-methoxy-4,6-dimethyl-5-((propylamino)methyl)tetrahydro-2H-pyran-2-yl)oxy)-3,5,8,10,12,14-hexamethyl-1-oxa-6-azacyclopentadecan-15-one]: the “Survival at Day 7” value in the data set on P. multocida [1] (16 mg/kg subcutaneous 18 hours after challenge (T02)) is on record as “about 80%”. The Mortality in data set [2] (T03: 2.5 mg/kg subcutaneous Day −1, M. haemolytica challenge Day 0, saline 4/6) is reported as 0/6. Besides, the “IL-6 levels, in words” value in [2] (bovine M. haemolytica challenge, blood biomarker) is listed as “significantly reduced”.
For the compound `CCCNC[C@]1(O)[C@H](C)O[C@@H](O[C@H]2[C@H](C)[C@@H](O[C@@H]3O[C@H](C)C[C@H]4[C@H]3OC(=Nc3ccccc3)N4CC(C)C)[C@](C)(O)C[C@@H](C)CN[C@H](C)[C@@H](O)[C@](C)(O)[C@@H](CC)OC(=O)[C@@H]2C)C[C@@]1(C)OC` (mixture of isomers) [Example A-32, (E/Z)-(2R,3S,4R,5R,8R,10R,11R,12S,13S,14R)-2-ethyl-3,4,10-trihydroxy-13-(((2R,4R,5S,6S)-5-hydroxy-4-methoxy-4,6-dimethyl-5-((propylamino)methyl)tetrahydro-2H-pyran-2-yl)oxy)-11-(((3aR,4S,6R,7aS)-1-isobutyl-6-methyl-2-(phenylimino)hexahydro-2H-pyrano[4,3-d]oxazol-4-yl)oxy)-3,5,8,10,12,14-hexamethyl-1-oxa-6-azacyclopentadecan-15-one], the IC50 turned out to be 5 µM in the data set on TNF-α and 2 µM with IL-6. In addition, in the data set with IL-1β, the “IL-Iβ OS of LPS” value was determined as 2 µM.
For the compound `CO/N=C(\C(=O)N[C@@H]1C(=O)N2C(C(=O)O)=C(CSC(=O)c3ccco3)CS[C@H]12)c1csc(N)n1` [ceftiofur], the “Survival at Day 7” value in the data set with P. multocida [1] (9 mg/kg subcutaneous 18 hours after challenge (T04)) is on record as about 90%.
As to `CCCNC[C@]1(O)[C@H](C)O[C@@H](O[C@H]2[C@H](C)[C@@H](O[C@@H]3O[C@H](C)C[C@H]4[C@H]3OC(=Nc3ccccc3)N4C)[C@](C)(O)C[C@@H](C)CN(C)[C@H](C)[C@@H](O)[C@](C)(O)[C@@H](CC)OC(=O)[C@@H]2C)C[C@@]1(C)OC` (mixture of isomers) [Example A-31, (E/Z)-(2R,3S,4R,5R,8R,10R,11R,12S,13S,14R)-11-(((3aR,4S,6R,7aS)-1,6-dimethyl-2-(phenylimino)hexahydro-2H-pyrano[4,3-d]oxazol-4-yl)oxy)-2-ethyl-3,4,10-trihydroxy-13-(((2R,4R,5S,6S)-5-hydroxy-4-methoxy-4,6-dimethyl-5-((propylamino)methyl)tetrahydro-2H-pyran-2-yl)oxy)-3,5,6,8,10,12,14-heptamethyl-1-oxa-6-azacyclopentadecan-15-one], the concentration for half-maximal inhibition (IC50) with TNF-α is 7 µM; in the data set with IL-6, 10 µM. In the data set on IL-1β, the “IL-Iβ OS of LPS” value was over 250 µM.
With `CC[C@H]1OC(=O)[C@H](C)[C@@H](O[C@H]2C[C@@](C)(OC)[C@](O)(CNCC3CC3)[C@H](C)O2)[C@H](C)[C@@H](O[C@@H]2O[C@H](C)C[C@H]3[C@H]2OC(=Nc2ccc(OC)nc2)N3C)[C@](C)(O)C[C@@H](C)CN[C@H](C)[C@@H](O)[C@]1(C)O` (mixture of isomers) [Example A-25, (E/Z)-(2R,3S,4R,5R,8R,10R,11R,12S,13S,14R)-13-(((2R,4R,5S,6S)-5-(((cyclopropylmethyl)amino)methyl)-5-hydroxy-4-methoxy-4,6-dimethyltetrahydro-2H-pyran-2-yl)oxy)-2-ethyl-3,4,10-trihydroxy-11-(((3aR,4S,6R,7aS)-2-((6-methoxypyridin-3-yl)imino)-1,6-dimethylhexahydro-2H-pyrano[4,3-d]oxazol-4-yl)oxy)-3,5,8,10,12,14-hexamethyl-1-oxa-6-azacyclopentadecan-15-one], the 50% inhibitory concentration (IC50) in the data set with TNF-α was 2.5 µM; in the data set on IL-6 it was 4 µM. Moreover, in the data set on IL-1β, the “IL-Iβ OS of LPS” value is 16 µM. For the same compound, in the data set with P. multocida 46572, the “% Survival” value came out at 26%.
With `CCCN1C[C@H](C)[C@@H](O)[C@](C)(O)[C@@H](CC)OC(=O)[C@H](C)[C@@H](O[C@H]2C[C@@](C)(OC)[C@@H](O)[C@H](C)O2)[C@H](C)[C@@H](O[C@@H]2O[C@H](C)C[C@H](N(C)C)[C@H]2O)[C@](C)(O)C[C@H]1C` [gamithromycin, reference compound], the MIC50 against M. haemolytica (setting [5]) worked out at 1 µg/mL (≈ 1.29 µM); against P. multocida [3] (setting [6]), 1 µg/mL (≈ 1.29 µM); in the data set on H. somni, 0.25 µg/mL (≈ 0.322 µM). Also, the figures for the MIC90 in the data set with M. haemolytica (setting [5]), in the data set with P. multocida [3] (setting [6]) and in the data set with H. somni were over 64 µg/mL, over 64 µg/mL and 2 µg/mL (≈ 2.57 µM), respectively. The entries for the “MIC values, range over strains” value with M. haemolytica (the same M. haemolytica screening strains) and against P. multocida [3] (the same P. multocida screening strains) were 0.5 to 1 µg/mL and 1 to 2 µg/mL, respectively. In addition, in data set [4], the “Percent failure (treatment failure)” value is on record as 29.8%.
As to `CC[C@H]1OC(=O)[C@H](C)[C@@H](O[C@H]2C[C@@](C)(OC)[C@](O)(CNCCOC)[C@H](C)O2)[C@H](C)[C@@H](O[C@@H]2O[C@H](C)C[C@H]3[C@H]2OC(=Nc2ccc(OC)cc2)N3C)[C@](C)(O)C[C@@H](C)CN[C@H](C)[C@@H](O)[C@]1(C)O` (mixture of isomers) [Example A-13, (E/Z)-(2R,3S,4R,5R,8R,10R,11R,12S,13S,14R)-2-ethyl-3,4,10-trihydroxy-13-(((2R,4R,5S,6S)-5-hydroxy-4-methoxy-5-(((2-methoxyethyl)amino)methyl)-4,6-dimethyltetrahydro-2H-pyran-2-yl)oxy)-11-(((3aR,4S,6R,7aS)-2-((4-methoxyphenyl)imino)-1,6-dimethylhexahydro-2H-pyrano[4,3-d]oxazol-4-yl)oxy)-3,5,8,10,12,14-hexamethyl-1-oxa-6-azacyclopentadecan-15-one], the MIC against M. haemolytica (M. haemolytica 12726) is over 64 µg/mL; in the data set on M. haemolytica (M. haemolytica 46571, bovine efficacy challenge strain) it was over 64 µg/mL; against M. haemolytica (M. haemolytica ATCC 33396) it was over 64 µg/mL; in the data set with P. multocida [3] (P. multocida 46572, murine efficacy challenge strain), over 64 µg/mL; in the data set on P. multocida [3] (P. multocida ATCC 43137) it was over 64 µg/mL; against E. coli (E. coli ATCC 25922) it was over 64 µg/mL. Moreover, the MIC against E. coli (E. coli W3110) and against S. aureus was over 64 µg/mL each time. Besides, the midpoint of inhibition with TNF-α, the IC50, lay at 5 µM. Also, the “IL-Iβ OS of LPS” value in the data set with IL-1β was found to be 32 µM. For the same compound, in the data set on P. multocida 46572, the “% Survival” value is listed as 37%. In the data set with P. multocida 46572 (P. multocida infection in mice), the “clinical efficacy, in words” value was “clinically efficacious”.
`CC[C@H]1OC(=O)[C@H](C)[C@@H](O[C@H]2C[C@@](C)(OC)[C@](O)(CNCC(C)C)[C@H](C)O2)[C@H](C)[C@@H](O[C@@H]2O[C@H](C)C[C@H]3[C@H]2OC(=Nc2ccc(OC)nc2)N3C)[C@](C)(O)C[C@@H](C)CN[C@H](C)[C@@H](O)[C@]1(C)O` (mixture of isomers) [Example A-28, (E/Z)-(2R,3S,4R,5R,8R,10R,11R,12S,13S,14R)-2-ethyl-3,4,10-trihydroxy-13-(((2R,4R,5S,6S)-5-hydroxy-5-((isobutylamino)methyl)-4-methoxy-4,6-dimethyltetrahydro-2H-pyran-2-yl)oxy)-11-(((3aR,4S,6R,7aS)-2-((6-methoxypyridin-3-yl)imino)-1,6-dimethylhexahydro-2H-pyrano[4,3-d]oxazol-4-yl)oxy)-3,5,8,10,12,14-hexamethyl-1-oxa-6-azacyclopentadecan-15-one]: the half-maximal inhibitory concentration (IC50) in the data set on TNF-α stood at 8 µM; with IL-6 it was 20 µM. For the same compound, in the data set on IL-1β, the “IL-Iβ OS of LPS” value came to 16 µM. The “% Survival” value in the data set on P. multocida 46572 was found to be 53%.
